≈ marks a conversion by molar mass, not a printed value.
B1: Caseinolytic peptidase P (ClpP) of S. aureus, label-free (His tag excised) (enzyme)
chain: MNLIPTVIETTNRGERAYDIYSRLLKDRIIMLGSQIDDNVANSIVSQLLFLQAQDSEKDIYLYINSPGGSVTAGFAIYDTIQHIKPDVQTICIGMAASMGSFLLAAGAKGKRFALPNAEVMIHQPLGGAQGQATEIEIAANHILKTREKLNRILSERTGQSIEKIQKDTDRDNFLTAEEAKEYGLIDEVMVPETK
notes: also called casein hydrolase P; label-free ClpP protein; source: E. coli BL21 (DE3), pET28a-clpP, purified (His-Trap); copies: 14
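Throughout, for Relative inhibition rate (%): ClpP peptidase activity measured as fluorescence (ex 360 nm, em 465 nm) from cleavage of Suc-LY-AMC substrate at 100 µM, 30 min at 32°C.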

What follows are molecules tested against T1, ClpP (Staphylococcus aureus, UniProt Q2G036) (assay: ClpP peptidase assay with fluorescent substrate Suc-LY-AMC (positive-control inhibitor)). Settings: not given.
T1 construct: pET28a-clpP, purified from E. coli BL21(DE3)
Format: biochemical
In the case of `O=c1c(O)c(-c2cc(O)c(O)c(O)c2)oc2cc(O)cc(O)c12` [myricetin], the “ClpP peptidase assay with fluorescent substrate Suc-LY-AMC (positive-control inh)” value is reported as “the inhibitory ability of quercetin and the positive-control myricetin on ClpP activity were the closest”.

These molecules were tested against T1, ClpP (assay: biochemical). Settings: read-out: Relative inhibition rate (%).
Procedure: This property was exploited to screen the available laboratory library of small molecules for ClpP inhibitors. First, 10 μM ClpP and 64 μg/mL of the small molecule compound were added to a black opaque 96-well plate containing 100 μL of ClpP buffer (100 mM HEPES,100 mM NaCl) and incubated for 1 h at room temperature. Afterward, 100 μM Suc-LeuTyr-AMC (Cat number S1153, Sigma-Aldrich, St. Louis, MO, USA) was added to 96-well plates and incubated for 30 min at 32°C. Finally, the fluorescence values were detected by Infinite M200 (360 nm excitation/465 nm emission). […] Since the fluorescent substrate Suc-LY-AMC can be used to detect the activity of ClpP protein, we screened a library of natural products available in our laboratory.
`CC1=C[C@H](O)CC(C)(C)[C@H]1/C=C/C(C)=C/C=C/C(C)=C/C=C/C=C(C)/C=C/C=C(C)/C=C/C1=C(C)C[C@@H](O)CC1(C)C` [Lutein] showed an inhibition at 64 µg/mL of 1.4 ± 0.52%. With `COc1ccc(-c2cc(=O)c3c(O)c(OC)c(O)c(OC)c3o2)cc1` [Lysionotin] the inhibition at 64 µg/mL was 59.1 ± 1.55%. With `O=C1C[C@@H](c2ccc(O)cc2)Oc2cc(O)cc(O)c21` [Naringenin] the inhibition at 64 µg/mL was 8.2 ± 0.24%. With `C[C@@H]1O[C@@H](O[C@H]2[C@H](Oc3cc(O)c(C(=O)CCc4ccc(O)cc4)c(O)c3)O[C@H](CO)[C@@H](O)[C@@H]2O)[C@H](O)[C@H](O)[C@H]1O` [Naringin dihydrochalcone] the inhibition at 64 µg/mL was 20.6 ± 0.51%. `C=C(C)[C@H](CC=C(C)C)Cc1c(O)cc(O)c2c1O[C@H](c1ccc(O)cc1O)CC2=O` [Nor-kurarinone] showed an inhibition at 64 µg/mL of 83.3 ± 0.02%. `O=c1cc(-c2ccc(O)c(O)c2)oc2c([C@@H]3O[C@H](CO)[C@@H](O)[C@H](O)[C@H]3O)c(O)cc(O)c12` [Orientin] was tested, and the inhibition at 64 µg/mL was 61.4 ± 1.24%. `COc1ccc(C(C)=O)c(O)c1` [Paeonol] was tested, and the inhibition at 64 µg/mL was 26.7 ± 4.31%. Work on `COc1ccc(-c2cc(=O)c3c(O)c(OC)c(O[C@@H]4O[C@H](CO[C@@H]5O[C@@H](C)[C@H](O)[C@@H](O)[C@H]5O)[C@@H](O)[C@H](O)[C@H]4O)cc3o2)cc1` [Pectolinarin] yielded an inhibition at 64 µg/mL of 28.3 ± 1.37%. With `COc1cc2c(cc1O)C[C@H]1c3cc(O)c(OC)cc3CC[N+]1(C)C2` (stereo partly shown) [Phellodendrine chloride] the inhibition at 64 µg/mL was 10.2 ± 2.67%. In the case of `O=C(CCc1ccc(O)cc1)c1c(O)cc(O)cc1O[C@@H]1O[C@H](CO)[C@@H](O)[C@H](O)[C@H]1O` [Phlorizin], the inhibition at 64 µg/mL is reported as 5.3 ± 0.71%. For `O=C1C[C@@H](c2ccccc2)Oc2cc(O)cc(O)c21` [Pinocembrin], the inhibition at 64 µg/mL was 33.7 ± 0.68%. Molecule `C/C=C(/C)C(=O)O[C@H]1[C@@H](OC(C)=O)c2c(ccc3ccc(=O)oc23)OC1(C)C` [Praeruptorin A] has an inhibition at 64 µg/mL of 37.8 ± 3.15%. `COc1ccc(-c2oc3c(OC)c(O)cc(O)c3c(=O)c2O)cc1` [Prudomestin] gave an inhibition at 64 µg/mL of 54.2 ± 4.67%. In the case of `O=C1c2ccccc2C(=O)c2c(O)c(O)cc(O)c21` [Purpurin], the inhibition at 64 µg/mL is reported as 11.6 ± 2.51%. In the case of `COc1ccc(/C=C/c2cc(O)cc(O)c2)cc1O` [Rhapontigenin], the inhibition at 64 µg/mL is reported as 42.2 ± 2.89%. In the case of `C[C@@H]1O[C@@H](O[C@H]2[C@H](Oc3cc(O)c4c(=O)cc(-c5ccc(O)cc5)oc4c3)O[C@H](CO)[C@@H](O)[C@@H]2O)[C@H](O)[C@H](O)[C@H]1O` [Rhoifolin], the inhibition at 64 µg/mL is reported as 46.7 ± 1.3%. `COc1cc(O)c2c(c1)O[C@H](c1ccc(O)cc1)CC2=O` [Sakuranetin] gave an inhibition at 64 µg/mL of 3.9 ± 1.2%. `C[C@H]1CC[C@@]2(OC1)O[C@H]1C[C@H]3[C@@H]4CC[C@@H]5C[C@@H](O)CC[C@]5(C)[C@H]4CC[C@]3(C)[C@H]1[C@@H]2C` [Sarsasapogenin] was tested, and the inhibition at 64 µg/mL was 7.8 ± 0.96%. `CC(C)=CC[C@@H](O)C1=CC(=O)c2c(O)ccc(O)c2C1=O` [Shikonin] was tested, and the inhibition at 64 µg/mL was 13.4 ± 1.54%. `COc1cc([C@@H]2Oc3c(O)cc([C@H]4Oc5cc(O)cc(O)c5C(=O)[C@@H]4O)cc3[C@H]2CO)ccc1O` [Silicristin] was tested, and the inhibition at 64 µg/mL was 9.3 ± 0.83%. `C=CC/C(=N/OS(=O)(=O)O)S[C@@H]1O[C@H](CO)[C@@H](O)[C@H](O)[C@H]1O` [Sinigrin] showed an inhibition at 64 µg/mL of 20.1 ± 4.17%. Work on `COc1ccc(-c2cc(=O)c3c(OC)c(OC)c(OC)c(OC)c3o2)cc1` [Tangeretin] yielded an inhibition at 64 µg/mL of 41.2 ± 1.53%. `Cc1coc2c1C(=O)C(=O)c1c-2ccc2c(C)cccc12` [Tanshinone I] showed an inhibition at 64 µg/mL of 12.3 ± 1.41%. In the case of `O=C1c2c(O)cc(O)cc2O[C@H](c2ccc(O)c(O)c2)[C@H]1O` [Taxifolin], the inhibition at 64 µg/mL is reported as 17.2 ± 1.2%. `COc1cc(O)c2c(=O)cc(-c3ccccc3)oc2c1` [Tectochrysin] was tested, and the inhibition at 64 µg/mL was 7.1 ± 0.26%. Work on `O=C(CCCCc1ccc2c(c1)OCO2)N1CCCCC1` [Tetrahydropiperine] yielded an inhibition at 64 µg/mL of 24.5 ± 3.67%. Work on `C[C@@H]1CC[C@@]2(OC1)O[C@H]1C[C@H]3[C@@H]4CC[C@H]5C[C@@H](O)CC[C@]5(C)[C@H]4CC[C@]3(C)[C@H]1[C@@H]2C` [Tigogenin] yielded an inhibition at 64 µg/mL of 12.3 ± 4.21%. With `O=C(/C=C/c1ccc(O)cc1)OC[C@H]1O[C@@H](Oc2c(-c3ccc(O)cc3)oc3cc(O)cc(O)c3c2=O)[C@H](O)[C@@H](O)[C@@H]1O` [Tiliroside] the inhibition at 64 µg/mL was 3.6 ± 0.17%. Work on `CC(C)c1ccc2c(c1O)CC[C@H]1C3=C(CC[C@]21C)C(=O)OC3` [Triptophenolide] yielded an inhibition at 64 µg/mL of 20.8 ± 0.61%. Molecule `COc1cc(-c2oc3cc(O)cc(O)c3c(=O)c2O[C@@H]2O[C@H](CO[C@@H]3O[C@@H](C)[C@H](O)[C@@H](O)[C@H]3O)[C@@H](O)[C@H](O)[C@H]2O[C@@H]2O[C@@H](C)[C@H](O)[C@@H](O)[C@H]2O)ccc1O` [Typhaneoside] has an inhibition at 64 µg/mL of 29.7 ± 0.72%. Work on `O=c1cc(-c2ccc(O)cc2)oc2c([C@@H]3O[C@H](CO)[C@@H](O)[C@H](O)[C@H]3O)c(O)c([C@@H]3O[C@H](CO)[C@@H](O)[C@H](O)[C@H]3O)c(O)c12` [Vicenin-2] yielded an inhibition at 64 µg/mL of 48.2 ± 2.26%. `COc1c(O)cc(O)c2c(=O)cc(-c3ccccc3)oc12` [Wogonin] gave an inhibition at 64 µg/mL of 35.4 ± 2.11%. Work on `C=C(C)[C@@H]1CCC(C)=C[C@H]1c1c(O)cc(CCCCC)cc1O` [cannabidiol] yielded an inhibition at 64 µg/mL of 6.8 ± 2.41%. In the case of `CC(C)=CCc1c(O)ccc(C(=O)/C=C/c2ccc(O)cc2)c1O` [isobavachalcone], the inhibition at 64 µg/mL is reported as 97.6 ± 0.26%. In the case of `CC(C)=CCc1c(-c2ccc(O)cc2O)oc2c([C@H]3C=C(C)C[C@@H](c4ccc(O)cc4O)[C@@H]3C(=O)c3ccc(O)cc3O)c(O)cc(O)c2c1=O` [kuwanonG], the inhibition at 64 µg/mL is reported as 21.2 ± 2.56%. `O=C(O)[C@H]1O[C@@H](Oc2cc(O)c3c(=O)cc(-c4ccc(O)c(O)c4)oc3c2)[C@H](O)[C@@H](O)[C@@H]1O` [luteolin-7-glucuronide] was tested, and the inhibition at 64 µg/mL was 47.1 ± 3.25%. Work on `O=c1c(O)c(-c2ccc(O)c(O)c2)oc2cc(O)cc(O)c12` [quercetin] yielded an inhibition at 64 µg/mL of 74.3 ± 2.67%.

The molecules below were run against T2, 6×His-ClpX protein of S. aureus (S. aureus, UniProt Q2FXQ7 1-420) (assay: pull-down; 6×His-ClpX and label-free ClpP mixed with 2 mM ATPγS (with DMSO, quercetin or ADEP4), overnight at 4°C; passed through Ni-NTA, washed with binding buffer (40 mM Tris, 200 mM NaCl, pH 8.5), eluted with 400 mM imidazole; SDS-PAGE). Settings: both partners purified.
T2 construct: source: E. coli, purified
T2 sequence (Q2FXQ7 whole entry): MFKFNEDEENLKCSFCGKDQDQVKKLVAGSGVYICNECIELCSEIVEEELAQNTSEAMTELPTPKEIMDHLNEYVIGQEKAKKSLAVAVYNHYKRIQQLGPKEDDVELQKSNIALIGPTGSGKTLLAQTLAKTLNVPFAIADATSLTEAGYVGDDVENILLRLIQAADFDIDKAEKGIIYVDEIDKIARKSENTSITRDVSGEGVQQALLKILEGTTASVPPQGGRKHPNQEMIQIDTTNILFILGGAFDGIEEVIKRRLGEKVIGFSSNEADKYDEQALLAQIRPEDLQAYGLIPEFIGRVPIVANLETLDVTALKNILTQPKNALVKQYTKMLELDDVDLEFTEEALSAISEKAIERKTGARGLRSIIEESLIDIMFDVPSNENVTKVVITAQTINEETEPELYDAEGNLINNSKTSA
B1: binds.

Each molecule was assayed against T1, ClpP (assay: LSPR (OpenSPR) with immobilized ClpP; supported by TSA, CETSA in lysate, and Suc-LY-AMC inhibition (IC50 […])). Settings: not given.
Format: binding
Molecule `O=c1c(O)c(-c2ccc(O)c(O)c2)oc2cc(O)cc(O)c12` [quercetin] has a Kd of 197 nM.

What follows are molecules tested on T3, S. aureus USA300 (MRSA) (assay: microbe, parasite or virus in culture). Settings: Staphylococcus aureus, read-out: MIC (μg/mL).
T3 construct: USA300
Design: MIC, growth inhibition of MRSA USA300
Work on `C=C(C)[C@H](CC=C(C)C)Cc1c(O)cc(O)c2c1O[C@H](c1ccc(O)cc1O)CC2=O` [Nor-kurarinone] yielded an MIC of 2 µg/mL (≈ 4.71 µM). In the case of `CC(C)=CCc1c(O)ccc(C(=O)/C=C/c2ccc(O)cc2)c1O` [isobavachalcone], the MIC is reported as 8 µg/mL (≈ 24.7 µM). Molecule `O=c1c(O)c(-c2ccc(O)c(O)c2)oc2cc(O)cc(O)c12` [quercetin] has an MIC of 128 µg/mL (≈ 424 µM).

Source: PMC9045277, “Quercetin Reduces the Virulence of S. aureus by Targeting ClpP to Protect Mice from MRSA-Induced Lethal Pneumonia” (Microbiology Spectrum, 2022)
